Assay results as given in the NIST ThermoML archive (doi:10.1016/j.fluid.2008.07.012).
Numbers after ± are expanded uncertainties.

Details: Crystal; DTA

`CC(C)CCC[C@@H](C)[C@H]1CC[C@H]2[C@@H]3CC=C4C[C@@H](OC(=O)c5ccccc5)CC[C@]4(C)[C@H]3CC[C@]12C` [3β-benzoyloxycholest-5-ene] showed a Normal melting temperature of 150 ± 1 °C.

In the case of `CCCC(=O)O[C@H]1CC[C@@]2(C)C(=CC[C@H]3[C@@H]4CC[C@H]([C@H](C)CCCC(C)C)[C@@]4(C)CC[C@@H]32)C1` [3β-butanoyloxycholest-5-ene], the Normal melting temperature is reported as 99 ± 1 °C.
